In patent US12466800B2, “N-((1,2,3,5,6,7-hexahydro-S-indacen-4-yl)carbamoyl)-4, 5, 6, 7-tetrahydrobenzofuran-2-sulfonamide derivatives and related compounds as NLPR3 modulators for the treatment of multiple sclerosis (MS)” (Zomagen Biosciences Ltd, priority 2019, dated 2025) one finds IC50 data, which are given here for 30 compounds.

The structures appear in SMILES notation.

The test system of this test is IL-1b. Nature of the test: Mouse BMDM IL-1b Assay. To be noted: Macrophage; mouse bone marrow derived macrophages (C57BL6); 200 ng/mL LPS 3 h, compound 30 min, 5 mM ATP 45 min; IL-1b ELISA of supernatant. Format: cell-based. On the procedure: Example 20: Mouse BMDM IL-1b Assay
Mouse bone marrow cells from C57BL6 tibia and femur were culture in complete Isocov's Media supplemented with 20 ng/mL MCSF (BMDM media) at a density of 50 million cells/15 cm Petri dish. Fresh media was changed every 3 days, and bone marrow derived macrophages were collected, washed, and counted on day 7. Cells were seeded into 96 well plates at a density of 5×10^4 cells per well in 100 uL of BMDM media and cultured overnight. The cells were stimulated at 37° C. with 200 ng/mL Ultrapure LPS-B5 for 3 hours before pre-diluted compounds were added. 30 minutes after compound addition, 5 mM ATP was added for the secondary stimulation for 45 minutes. After stimulation, the plates were briefly spun down, and 50 uL of supernatant was harvested from each well. ELISA for mouse IL-1b was performed with 1:10 and 1:100 diluted supernatant using pre-coated kits. IL-1b concentrations were calculated based on pre-titrated standards, and compound inhibition IC50 is generated using the Levenberg Marquardt damped lease-square method.
Turning to `CC1CC(=NO)c2cc(S(=O)(=O)NC(=O)Nc3c4c(cc5c3CCC5)CCC4)oc2C1` (stereo not drawn) [Compound 48, N-((1,2,3,5,6,7-hexahydro-s-indacen-4-yl)carbamoyl)-4-(hydroxyimino)-6-methyl-4,5,6,7-tetrahydrobenzofuran-2-sulfonamide], the IC50 was 100 to 1000 nM.
To `CC1(C)CC(=NO)c2cc(S(=O)(=O)NC(=O)Nc3c4c(cc5c3CCC5)CCC4)oc2C1` [Compound 49, N-((1,2,3,5,6,7-hexahydro-s-indacen-4-yl)carbamoyl)-4-(hydroxyimino)-6,6-dimethyl-4,5,6,7-tetrahydrobenzofuran-2-sulfonamide] belongs 100 to 1000 nM; to `CC1(C)CCc2oc(S(=O)(=O)NC(=O)Nc3c4c(cc5c3CCC5)CCC4)cc2C1=NO` [Compound 50, N-((1,2,3,5,6,7-hexahydro-s-indacen-4-yl)carbamoyl)-4-(hydroxyimino)-5,5-dimethyl-4,5,6,7-tetrahydrobenzofuran-2-sulfonamide], less than 100 nM.
`Cc1c2c(c(NC(=O)NS(=O)(=O)c3cc4c(o3)CCCC4(C)O)c3c1CCC3)CCC2` (stereo not drawn) [Compound 51, 4-hydroxy-4-methyl-N-((8-methyl-1,2,3,5,6,7-hexahydro-s-indacen-4-yl)carbamoyl)-4,5,6,7-tetrahydrobenzofuran-2-sulfonamide] showed an IC50 of less than 100 nM.
Consider `Cc1c2c(c(NC(=O)NS(=O)(=O)c3cc4c(o3)CCCC4O)c3c1CCC3)CCC2` (stereo not drawn) [Compound 52, 4-hydroxy-N-((8-methyl-1,2,3,5,6,7-hexahydro-s-indacen-4-yl)carbamoyl)-4,5,6,7-tetrahydrobenzofuran-2-sulfonamide], for which the IC50 was less than 100 nM.
On to `CC1(O)CCCc2oc(S(=O)(=O)NC(=O)Nc3c4c(c(C#N)c5c3CCC5)CCC4)cc21` (stereo not drawn) [Compound 53, N-((8-cyano-1,2,3,5,6,7-hexahydro-s-indacen-4-yl)carbamoyl)-4-hydroxy-4-methyl-4,5,6,7-tetrahydrobenzofuran-2-sulfonamide], for which the half-inhibitory concentration (IC50) is 100 to 1000 nM.
In turn, `N#Cc1c2c(c(NC(=O)NS(=O)(=O)c3cc4c(o3)CCCC4O)c3c1CCC3)CCC2` (stereo not drawn) [Compound 54, N-((8-cyano-1,2,3,5,6,7-hexahydro-s-indacen-4-yl)carbamoyl)-4-hydroxy-4,5,6,7-tetrahydrobenzofuran-2-sulfonamide] had a 50% inhibitory concentration (IC50) of 100 to 1000 nM.
In turn, `O=C(Nc1c2c(c(C(F)(F)F)c3c1CCC3)CCC2)NS(=O)(=O)c1cc2c(o1)CCCC2O` (stereo not drawn) [Compound 55, 4-hydroxy-N-((8-(trifluoromethyl)-1,2,3,5,6,7-hexahydro-s-indacen-4-yl)carbamoyl)-4,5,6,7-tetrahydrobenzofuran-2-sulfonamide] had an IC50 of less than 100 nM.
Compound `O=C(Nc1c2c(cc3c1CCC3)CCC2)NS(=O)(=O)c1cc2c(o1)CCCC2(O)C(F)(F)F` (stereo not drawn) [Compound 56, N-((1,2,3,5,6,7-hexahydro-s-indacen-4-yl)carbamoyl)-4-hydroxy-4-(trifluoromethyl)-4,5,6,7-tetrahydrobenzofuran-2-sulfonamide] displayed an IC50 of less than 100 nM.
`CN1CCCc2oc(S(=O)(=O)NC(=O)Nc3c4c(cc5c3CCC5)CCC4)cc2C1=O` [Compound 57, N-((1,2,3,5,6,7-hexahydro-s-indacen-4-yl)carbamoyl)-5-methyl-4-oxo-5,6,7,8-tetrahydro-4H-furo[3,2-c]azepine-2-sulfonamide] yielded an IC50 of 100 to 1000 nM.
To `CC1(O)CCCc2oc(S(=O)(=O)NC(=O)Cc3c4c(cc5c3CCC5)CCC4)cc21` (stereo not drawn) [Compound 58, 2-(1,2,3,5,6,7-hexahydro-s-indacen-4-yl)-N-((4-hydroxy-4-methyl-4,5,6,7-tetrahydrobenzofuran-2-yl)sulfonyl)acetamide] belongs 100 to 1000 nM; to `CC(C)c1cccc(C(C)C)c1NC(=O)NS(=O)(=O)c1cc2c(o1)CCCC2O` (stereo not drawn) [Compound 59, N-((2,6-diisopropylphenyl)carbamoyl)-4-hydroxy-4,5,6,7-tetrahydrobenzofuran-2-sulfonamide], 100 to 1000 nM; to `CC(C)c1cccc(C(C)C)c1NC(=O)NS(=O)(=O)c1cc2c(o1)CCCC2(C)O` (stereo not drawn) [Compound 60, N-((2,6-diisopropylphenyl)carbamoyl)-4-hydroxy-4-methyl-4,5,6,7-tetrahydrobenzofuran-2-sulfonamide], 100 to 1000 nM.
Then `CC(C)c1cc(Cl)cc(C(C)C)c1NC(=O)NS(=O)(=O)c1cc2c(o1)CCCC2O` (stereo not drawn) [Compound 61, N-((4-chloro-2,6-diisopropylphenyl)carbamoyl)-4-hydroxy-4,5,6,7-tetrahydrobenzofuran-2-sulfonamide], with 100 to 1000 nM; and `CC(C)c1cc(Cl)cc(C(C)C)c1NC(=O)NS(=O)(=O)c1cc2c(o1)CCCC2(C)O` (stereo not drawn) [Compound 62, N-((4-chloro-2,6-diisopropylphenyl)carbamoyl)-4-hydroxy-4-methyl-4,5,6,7-tetrahydrobenzofuran-2-sulfonamide], with less than 100 nM.
Consider `CC(C)c1cc(F)cc(C(C)C)c1NC(=O)NS(=O)(=O)c1cc2c(o1)CCCC2O` (stereo not drawn) [Compound 63, N-((4-fluoro-2,6-diisopropylphenyl)carbamoyl)-4-hydroxy-4,5,6,7-tetrahydrobenzofuran-2-sulfonamide], for which the IC50 fell in the range of 100 to 1000 nM.
Then `CC(C)c1cc(F)cc(C(C)C)c1NC(=O)NS(=O)(=O)c1cc2c(o1)CCCC2(C)O` (stereo not drawn) [Compound 64, N-((4-fluoro-2,6-diisopropylphenyl)carbamoyl)-4-hydroxy-4-methyl-4,5,6,7-tetrahydrobenzofuran-2-sulfonamide], with less than 100 nM; and `CC(C)c1ccc(Cl)c(C(C)C)c1NC(=O)NS(=O)(=O)c1cc2c(o1)CCCC2O` (stereo not drawn) [Compound 65, N-((3-chloro-2,6-diisopropylphenyl)carbamoyl)-4-hydroxy-4,5,6,7-tetrahydrobenzofuran-2-sulfonamide], with less than 100 nM; and `CC(C)c1ccc(Cl)c(C(C)C)c1NC(=O)NS(=O)(=O)c1cc2c(o1)CCCC2(C)O` (stereo not drawn) [Compound 66, N-((3-chloro-2,6-diisopropylphenyl)carbamoyl)-4-hydroxy-4-methyl-4,5,6,7-tetrahydrobenzofuran-2-sulfonamide], with 100 to 1000 nM.
To `CC(C)c1ccc(F)c(C(C)C)c1NC(=O)NS(=O)(=O)c1cc2c(o1)CCCC2O` (stereo not drawn) [Compound 67, N-((3-fluoro-2,6-diisopropylphenyl)carbamoyl)-4-hydroxy-4,5,6,7-tetrahydrobenzofuran-2-sulfonamide] belongs 100 to 1000 nM; to `CC(C)c1ccc(F)c(C(C)C)c1NC(=O)NS(=O)(=O)c1cc2c(o1)CCCC2(C)O` (stereo not drawn) [Compound 68, N-((3-fluoro-2,6-diisopropylphenyl)carbamoyl)-4-hydroxy-4-methyl-4,5,6,7-tetrahydrobenzofuran-2-sulfonamide], less than 100 nM.
On to `CC(C)c1cc(Br)cc(C(C)C)c1NC(=O)NS(=O)(=O)c1cc2c(o1)CCCC2O` (stereo not drawn) [Compound 69, N-((4-bromo-2,6-diisopropylphenyl)carbamoyl)-4-hydroxy-4,5,6,7-tetrahydrobenzofuran-2-sulfonamide], for which the IC50 fell in the range of 100 to 1000 nM.
For `CC(C)c1cc(Br)cc(C(C)C)c1NC(=O)NS(=O)(=O)c1cc2c(o1)CCCC2(C)O` (stereo not drawn) [Compound 70, N-((4-bromo-2,6-diisopropylphenyl)carbamoyl)-4-hydroxy-4-methyl-4,5,6,7-tetrahydrobenzofuran-2-sulfonamide], the IC50 lay in the range of 100 to 1000 nM.
Then `CC(C)c1cc(C#N)cc(C(C)C)c1NC(=O)NS(=O)(=O)c1cc2c(o1)CCCC2O` (stereo not drawn) [Compound 71, N-((4-cyano-2,6-diisopropylphenyl)carbamoyl)-4-hydroxy-4,5,6,7-tetrahydrobenzofuran-2-sulfonamide], with 100 to 1000 nM.
To `CC(C)c1cc(C#N)cc(C(C)C)c1NC(=O)NS(=O)(=O)c1cc2c(o1)CCCC2(C)O` (stereo not drawn) [Compound 72, N-((4-cyano-2,6-diisopropylphenyl)carbamoyl)-4-hydroxy-4-methyl-4,5,6,7-tetrahydrobenzofuran-2-sulfonamide] belongs 100 to 1000 nM; to `CC(C)c1cccc(C(C)C)c1NC(=O)NS(=O)(=O)c1cc2c(o1)CCCC2=NO` [Compound 73, N-((2,6-diisopropylphenyl)carbamoyl)-4-(hydroxyimino)-4,5,6,7-tetrahydrobenzofuran-2-sulfonamide], 100 to 1000 nM.
To `CC(C)c1cccc(C(C)C)c1CC(=O)NS(=O)(=O)c1cc2c(o1)CCC(C)(C)C2O` (stereo not drawn) [Compound 74, 2-(2,6-diisopropylphenyl)-N-((4-hydroxy-5,5-dimethyl-4,5,6,7-tetrahydrobenzofuran-2-yl)sulfonyl)acetamide] belongs 1000 to 10000 nM; to `CC(C)c1cccc(C(C)C)c1CC(=O)NS(=O)(=O)c1cc2c(o1)CCC(C)(C)C2(C)O` (stereo not drawn) [Compound 75, 2-(2,6-diisopropylphenyl)-N-((4-hydroxy-4,5,5-trimethyl-4,5,6,7-tetrahydrobenzofuran-2-yl)sulfonyl)acetamide], 1000 to 10000 nM.
Take `CC(C)c1cccc(C(C)C)c1CC(=O)NS(=O)(=O)c1cc2c(o1)CCC(C)(C)C2=O` [Compound 76, 2-(2,6-diisopropylphenyl)-N-((5,5-dimethyl-4-oxo-4,5,6,7-tetrahydrobenzofuran-2-yl)sulfonyl)acetamide]: the IC50 lay in the range of 1000 to 10000 nM.
As for `CC(C)c1cc(Cl)cc(C(C)C)c1NC(=O)NS(=O)(=O)c1cc2c(o1)CCC/C2=N/O` [Compound 77, (Z)-N-((4-chloro-2,6-diisopropylphenyl)carbamoyl)-4-(hydroxyimino)-4,5,6,7-tetrahydrobenzofuran-2-sulfonamide], the IC50 lay within 100 to 1000 nM.
